Measured values from PMC10298284, “Synthesis and hLDH Inhibitory Activity of Analogues to Natural Products with 2,8-Dioxabicyclo[3.3.1]nonane Scaffold” (International Journal of Molecular Sciences, 2023).
Read-outs that look alike come from different tables or passages of the source.

Key:
recombinant human LDHB [1] = molecular target: T1, recombinant human LDHB (Homo sapiens, UniProt P07195); assay: hLDHB enzymatic activity assay (same fluorimetric protocol); format: biochemical; details: mean ± SD of n = 3 replicates
T1 construct: purchased Abcam
Description: (§1) Briefly, the decrease in the coenzyme β-NADH fluorescence (λemission = 460 nm) was measured for 10 min, at different concentration of inhibitors, and its slope was compared with the one obtained when there were not inhibitors added (100% enzymatic activity).
The ability of the synthesized compounds to inhibit the hLDHB enzyme was measured using recombinant human LDHB (95%, specific activity >300 units/mg and concentration of 1.0 mg/mL, Abcam, Cambridge, UK) following the same fluorimetric protocol described in Section 3.4.

recombinant human LDHA [2] = molecular target: T2, recombinant human LDHA (Homo sapiens, UniProt P00338); set-up: method as in PMID 36113265; details: compounds evaluated previously, cited from earlier work; for IC50: included for comparative purposes, read-out: hLDHA IC50; for Selectivity Rate (IC50 hLDHB/hLDHA): ratio IC50 hLDHB / IC50 hLDHA
T2 construct: purchased Abcam

recombinant human LDHB [3] = molecular target: T1, recombinant human LDHB; set-up: method as in PMID 36113265; details: compounds evaluated previously, included for comparative purposes; read-out: hLDHB IC50; cited from earlier work
recombinant human LDHA [4] = molecular target: T2, recombinant human LDHA; assay: hLDHA enzymatic activity assay (kinetic spectrofluorimetric, β-NADH fluorescence decrease); format: biochemical; details: for IC50: mean ± SD of n = 3 replicates
Description: as §1
The enzymatic assay was conducted on 96-well microplates and the decrease in the β-NADH fluorescence (λexcitation = 340 nm; λemission = 460 nm) was detected in a TECAN Infinite 200 Pro M Plex fluorescent plate reader (Tecan Instrument, Inc.) at 28 °C. The activity was determined according to our previously described protocol. The final volume in each well was set to 200 µL using 100 mM potassium phosphate buffer, 0.041 units/mL LDHA, 155 µM β-NADH, 1 mM pyruvate (saturated conditions), and DMSO solutions (5%, v/v) of pure compounds at concentrations in the range of 1–600 µM. The addition of pyruvate allowed the beginning of the reaction and fluorescence was registered every 60 s during 10 min. A lineal time interval was selected to calculate the slope at every single concentration. […] The slope obtained at each concentration was compared to the one obtained for the 100% enzymatic activity control to determine the corresponding enzymatic activity. A nonlinear regression analysis in GraphPad Prism version 9.00 for Windows (GraphPad Software, La Jolla, CA, USA) was used for dose response curve, fitting of logarithm of inhibitor concentration vs. normalized enzymatic activity, to calculate IC50 values (Supplementary Material section). All measurements were made in triplicate and data were expressed as the mean ± SD.

[5] = supplementary dose response curves, µM only on the axis label, read-out: IC50 (hLDHB inhibition curve)

T1 sequence (P07195 whole entry): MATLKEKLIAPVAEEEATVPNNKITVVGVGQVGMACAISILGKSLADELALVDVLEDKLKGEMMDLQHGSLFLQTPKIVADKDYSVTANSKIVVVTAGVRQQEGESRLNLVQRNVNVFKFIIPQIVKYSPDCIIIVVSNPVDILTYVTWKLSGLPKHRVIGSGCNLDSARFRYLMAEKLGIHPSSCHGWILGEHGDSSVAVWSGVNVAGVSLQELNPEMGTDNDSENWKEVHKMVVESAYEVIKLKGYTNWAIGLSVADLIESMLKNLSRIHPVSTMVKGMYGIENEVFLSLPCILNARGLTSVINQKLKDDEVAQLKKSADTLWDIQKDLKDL

IC50 (recombinant human LDHB [1]; [5]) [µM]	IC50 (recombinant human LDHA [4]; 1 mM pyruvate, 155 µM β-NADH, pH 7.3, 28 °C, read-out: hLDHA IC50) [µM]	Selectivity Rate (IC50 hLDHB/hLDHA) (recombinant human LDHA [4]; ratio IC50 hLDHB / IC50 hLDHA)	IC50 (recombinant human LDHA [4]; supplementary dose response curves, µM only on the axis label, read-out: IC50 (hLDHA inhibition curve)) [µM]	IC50 (recombinant human LDHB [1]; read-out: hLDHB IC50) [µM]	melting point [°C]	Structure (SMILES)	IC50 (recombinant human LDHA [2]) [µM]	Selectivity Rate (IC50 hLDHB/hLDHA) (recombinant human LDHA [2])	IC50 (recombinant human LDHB [3]) [µM]
35.4 ± 0.8	–	–	–	–	–	Oc1cc(O)c2c(c1)OC1(c3ccc(O)c(O)c3)CC2c2ccccc2O1 (racemic) [(±)-1]	73.1 ± 2.5	0.5	–
–	–	–	–	–	–	O=[N+]([O-])c1ccc2c(c1)C1CC(c3ccc(O)c(O)c3)(O2)Oc2cc(O)cc(O)c21 (racemic) [(±)-2]	9.7 ± 1.1	3.0	28.6 ± 1.9
–	–	–	–	–	–	Oc1cc(O)c2c(c1)OC1(c3ccc(O)c(O)c3)CC2c2cc(Cl)ccc2O1 (racemic) [(±)-3]	15.7 ± 2.7	2.5	39.7 ± 2.8
45.9 ± 1.5	–	–	–	–	–	Oc1ccc(C23CC(c4ccccc4O2)c2c(O)cc(O)cc2O3)cc1 (racemic) [(±)-4]	60 ± 4.7	0.8	–
–	–	–	–	–	–	O=[N+]([O-])c1ccc2c(c1)C1CC(c3ccc(O)cc3)(O2)Oc2cc(O)cc(O)c21 (racemic) [(±)-5]	24.4 ± 2.7	2.9	69.7 ± 4.7
–	–	–	–	–	–	Oc1ccc(C23CC(c4cc(Cl)ccc4O2)c2c(O)cc(O)cc2O3)cc1 (racemic) [(±)-6]	26.7 ± 0.8	3.2	85.5 ± 2.5
–	112 ± 3	>2.7	112 ± 3	> 300	108 to 111	COc1ccc(C2CC3=C(C(=O)O2)C2CC(c4ccc(OC)c(OC)c4)(O3)Oc3ccc(Cl)cc32)cc1 (racemic) [(±)-70a, 2-(3′.4′-Dimethoxyphenyl)-6-chlorochromane-(4→3″, 2→O-4″)-4″-hydroxy-6″-(4‴-methoxyphenyl)-5″,6″-dihydro-2H-pyran-2″-one]	–	–	–
